US20200085791A1, “[(PHENYLSULFONYL)OCTAHYDRO-EPIMINOISOINDOL-YL](1H-1,2,3-TRIAZOL-5-YL)METHANONES” (Bayer Pharma Aktiengesellschaft, priority 2016, published 2020)

Target: T1, recombinant human AKR1C3 (Aldo-keto reductase family 1 member C3) (Homo sapiens, UniProt P42330)
T1 construct: GST (cleaved yes); made in house; host or cells: E. coli
T1 sequence (P42330 1-323): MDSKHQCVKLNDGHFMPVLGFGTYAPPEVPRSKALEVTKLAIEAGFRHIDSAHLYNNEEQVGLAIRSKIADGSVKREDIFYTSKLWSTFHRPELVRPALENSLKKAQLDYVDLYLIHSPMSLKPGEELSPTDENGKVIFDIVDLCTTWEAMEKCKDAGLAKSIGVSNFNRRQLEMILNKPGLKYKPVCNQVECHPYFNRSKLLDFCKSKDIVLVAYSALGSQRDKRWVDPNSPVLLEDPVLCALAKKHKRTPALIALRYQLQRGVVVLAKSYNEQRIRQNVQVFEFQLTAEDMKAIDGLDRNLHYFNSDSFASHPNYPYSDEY
Experiment: In Vitro Assay 1: AKR1C3-inhibitory activity (Coumberone to Coumberol fluorescence assay)
Format: biochemical
Settings: recombinant enzyme, Coumberone 0.3 μM, NADPH 10 μM, 15 min pre-incubation, 4-parameter fit; average or median values
Summary of the method: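 Recombinant human AKR1C3 (E. coli-expressed GST fusion, GST removed), typically ~1 nM, was preincubated 15 min with compound in 50 mM potassium phosphate pH 7 with 1 mM DTT. The reaction ran typically 90 min with 10 μM NADPH and 0.3 μM Coumberone (final), then was stopped with 1 μM EM-1404. Coumberol fluorescence (ex 380/em 520 nm) was normalized to no-inhibitor and no-enzyme controls.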

| Compound | IC50 |
| --- | --- |
| N#Cc1ccc(Cl)c(S(=O)(=O)N2[C@@H]3CC[C@H]2[C@@H]2CN(C(=O)c4cnn[nH]4)C[C@@H]23)c1 [Example 67, 4-chloro-3-{[(3aR,4R,7S,7aS)-2-(1H-1,2,3-triazol-5-ylcarbonyl)octahydro-1H-4,7-epiminoisoindol-8-yl]sulfonyl}benzonitrile] | 33 nM |
| O=C(c1cnn[nH]1)N1C[C@@H]2[C@H](C1)[C@H]1CC[C@@H]2N1S(=O)(=O)c1ccccc1[N+](=O)[O-] [Example 35, {(3aR,4R,7S,7aS)-8-[(2-nitrophenyl)sulfonyl]octahydro-2H-4,7-epiminoisoindol-2-yl}(1H-1,2,3-triazol-5-yl)methanone] | 4 nM |
| O=C(c1cnn[nH]1)N1C[C@@H]2[C@H](C1)[C@H]1CC[C@@H]2N1S(=O)(=O)c1ccc2nsnc2c1 [Example 48, [(3aR,4R,7S,7aS)-8-(2,1,3-benzothiadiazol-5-ylsulfonyl)octahydro-2H-4,7-epiminoisoindol-2-yl](1H-1,2,3-triazol-5-yl)methanone] | 213 nM |
| O=C(c1cnn[nH]1)N1C[C@@H]2[C@H](C1)[C@H]1CC[C@@H]2N1S(=O)(=O)c1ccc(Br)cc1 [Example 30, ((3aR,4R,7S,7aS)-8-[(4-bromophenyl)sulfonyl]octahydro-2H-4,7-epiminoisoindol-2-yl)(1H-1,2,3-triazol-5-yl)methanone] | 193 nM |
| N#Cc1ccc(S(=O)(=O)N2[C@@H]3CC[C@H]2[C@@H]2CN(C(=O)c4cnn[nH]4)C[C@@H]23)cc1 [Example 43, 4-{[(3aR,4R,7S,7aS)-2-(1H-1,2,3-triazol-5-ylcarbonyl)octahydro-1H-4,7-epiminoisoindol-8-yl]sulfonyl}benzonitrile] | 855 nM |
| O=C(c1cnn[nH]1)N1C[C@@H]2[C@H](C1)[C@H]1CC[C@@H]2N1S(=O)(=O)c1cc(Cl)ccc1F [Example 51, {(3aR,4R,7S,7aS)-8-[(5-chloro-2-fluorophenyl)sulfonyl]octahydro-2H-4,7-epiminoisoindol-2-yl}(1H-1,2,3-triazol-5-yl)methanone] | 3 nM |
| O=C(c1c[nH]nn1)N1C[C@@H]2[C@H](C1)[C@@H]1CC[C@H]2N1S(=O)(=O)c1cccc(S(F)(F)(F)(F)F)c1 [Example 11, [(3aR,4S,7R,7aS)-8-{[3-(pentafluoro-λ^6-sulfanyl)phenyl]sulfonyl}octahydro-2H-4,7-epiminoisoindol-2-yl](1H-1,2,3-triazol-4-yl)methanone] | 69 nM |
| O=C(c1c[nH]nn1)N1[C@@H]2CC[C@H]1[C@H]1CN(S(=O)(=O)c3ccccc3Cl)C[C@H]12 [Example 9, {(3aR,4S,7R,7aS)-2-[(2-chlorophenyl)sulfonyl]octahydro-1H-4,7-epiminoisoindol-8-yl}(1H-1,2,3-triazol-4-yl)methanone] | 4 nM |
| Cc1cccc(Cl)c1S(=O)(=O)N1[C@@H]2CC[C@H]1[C@@H]1CN(C(=O)c3cnn[nH]3)C[C@@H]12 [Example 40, {(3aR,4R,7S,7aS)-8-[(2-chloro-6-methylphenyl)sulfonyl]octahydro-2H-4,7-epiminoisoindol-2-yl}(1H-1,2,3-triazol-5-yl)methanone] | 3 nM |
| O=C(c1c[nH]nn1)N1C[C@@H]2[C@H](C1)[C@@H]1CC[C@H]2N1S(=O)(=O)c1cccc(Cl)c1C(F)(F)F [Example 17, [(3aR,4S,7R,7aS)-8-{[3-chloro-2-(trifluoromethyl)phenyl]sulfonyl}octahydro-2H-4,7-epiminoisoindol-2-yl](1H-1,2,3-triazol-4-yl)methanone] | 51 nM |
| O=C(c1cnn[nH]1)N1C[C@@H]2[C@H](C1)[C@H]1CC[C@@H]2N1S(=O)(=O)c1ccc(F)c(F)c1F [Example 49, 1H-1,2,3-triazol-5-yl{(3aR,4R,7S,7aS)-8-[(2,3,4-trifluorophenyl)sulfonyl]octahydro-2H-4,7-epiminoisoindol-2-yl}methanone] | 148 nM |
